The results in this text go back to paper PMC4942611, “Promising Tools in Prostate Cancer Research: Selective Non-Steroidal Cytochrome P450 17A1 Inhibitors” (Scientific Reports, 2016).

For the assay, the target named is T1, CYP17A1 (Homo sapiens, UniProt P05093).
T1 construct: endogenous in cells; host or cells: H295R
T1 sequence (P05093 1-508): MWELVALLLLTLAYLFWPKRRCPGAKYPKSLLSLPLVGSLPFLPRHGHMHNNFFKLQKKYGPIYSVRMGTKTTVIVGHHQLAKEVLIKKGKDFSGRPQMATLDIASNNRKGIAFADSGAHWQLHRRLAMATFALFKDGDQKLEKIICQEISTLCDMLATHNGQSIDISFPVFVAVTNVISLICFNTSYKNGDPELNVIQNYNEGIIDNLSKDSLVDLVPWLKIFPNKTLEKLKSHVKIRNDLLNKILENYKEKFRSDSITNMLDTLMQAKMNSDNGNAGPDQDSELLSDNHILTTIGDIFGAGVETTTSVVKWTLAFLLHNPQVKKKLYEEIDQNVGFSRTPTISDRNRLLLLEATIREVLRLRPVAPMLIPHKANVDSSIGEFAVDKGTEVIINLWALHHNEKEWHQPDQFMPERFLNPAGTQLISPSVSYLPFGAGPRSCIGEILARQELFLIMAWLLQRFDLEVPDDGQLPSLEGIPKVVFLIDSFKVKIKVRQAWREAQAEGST
Kind of assay: H295R cell assay, CYP17A1 hydroxylase and lyase activity. It counts as cell-based. The settings on record: for IC50: 48 hours, mean over 6 to 15 measurements ± standard error. On the procedure: The H295R steroid hormone synthesis assay was performed according to the OECD validation guideline. Cells were cultured in DMEM/F12 media supplemented with 1% ITS-premix and 2.5% Nu-serum at 37 °C with a 5% CO2 atmosphere. The cells were only used for experiments between passage […]. During exposure experiments, cells were grown in 24 well plates with a density of 3 × 10^5 cells/mL. […] To avoid interference from low levels of steroid hormones present in the Nu-serum, the exposure experiment was conducted with serum-free media. Each compound was tested at a minimum of seven concentration levels using three or more replicates and the experiment was repeated on two different days (n = 6–15). On each test plate a solvent control (SC) (medium with 0.1% DMSO) was included in triplicate and the maximal concentration of DMSO in the cell medium was 0.1%[49]. After 48 hours of incubation in presence of the test compounds, 950 μL of the medium was carefully removed and internal standards (50 μl of 0.1 μg/μl solution containing deuterated steroid analogues) were added. Samples were stored at −20 °C for later analysis.
Steroid extraction and clean-up were performed by double protein precipitation. First, 900 μL of cold acetonitrile were added to the samples, which were then vortexed and centrifuged at ~9500 × g for 10 minutes. Second, 900 μL cold methanol was added to the supernatant and the mixture was vortexed and centrifuged at 1500 × g for 10 minutes. Finally, the supernatant was collected and concentrated to ~1 mL under a gentle stream of nitrogen at 60 °C.
For on-line solid phase extraction (SPE) of steroids, a total of 100 μL was injected on a binary 1290 Agilent Infinity Series system and a binary 1100 Agilent HPLC pump were used in combination (Agilent Technologies, Palo Alto, CA, USA). For online clean-up, a C18 enrichment column (μbondapak® C18, 3.9 × 20 mm, 10 μm, Waters) was used. The enrichment column was connected to the autosampler through the TTC switching valve (two positions, 6 ports). Between the autosampler and the TTC switching valve a 0.3 μm in-line filter (1290 infinity in-line filter, Agilent) was installed. Separation of steroid hormones was performed using a C18 analytical column (Kinetex, 2.6 μm C18 100 Å, 75 × 2.1 mm, Phenomenex, USA). An isocratic flow of 1 mL/min H2O:methanol:formic acid at 90:10:0.1 (v/v/v) was generated by the 1100 pump which was connected to the autosampler. The 1290 pump performed a gradient elution with a flow rate of 0.3 mL which was connected to the TTC switching valve. Mobile phase A and B were composed of H2O with 0.1% formic acid (v/v) and pure methanol, respectively. The elution gradient was maintained at 10% B for the first 2 min, changed to 10.0–30.0% from 2.0 to 2.2 min, 30.0–60.0% from 2.2 to 8.0 min, maintained at 60.0% from 8.0 to 10.0 min, increased to 60.0–85.0% from 10.0 to 12.30 min, 85.0–99.5% from 12.3 to 12.5 min and held at 99.5% from 12.5 to 14.8 min, before re-equilibrating the column until 16 minutes.
For detection, an AB SCIEX 4500 QTRAP mass spectrometer (Applied Biosystems, Foster City, CA, USA) equipped with an atmospheric pressure chemical ionization (APCI) Turbo V source was used. Multiple reaction monitoring (MRM) was performed in positive mode during the analysis with a targeted scan time of 0.8 sec. Nitrogen was applied as curtain, collision, and ion source gases.

The mark [1] stands for this setting: based on conversion of 17-OH-PRE into DHEA, read-out: IC50 lyase, H295R system.
Setting [2] is: based on conversion of PRE into 17-OH-PRE, read-out: IC50 hydroxylase, H295R system.

Read-outs that look alike come from different tables or passages of the source.

In the case of `Cc1ccc(-c2csc(-c3cccnc3)n2)c(C)c1` [Compound 1], the half-inhibitory concentration (IC50) reads like this: under setting [1], 94 ± 30 nM; under setting [2], 830 ± 80 nM.
As for `CCCn1nnc2cc(-c3cc(-c4ccncc4)c(C#N)c(N)n3)ccc21` [Compound 2], the half-maximal inhibitory concentration (IC50) runs as follows: under setting [1], 7.4 ± 0.1 nM; under setting [2], 52 ± 4 nM.
For `C[C@]12CC[C@H](O)CC1=CC[C@@H]1[C@@H]2CC[C@]2(C)C(c3cccnc3)=CC[C@@H]12` [abiraterone, reference compound], the “Inhibitor concentrations at which CYP17A1 is inhibited (only CYP17A1 affected)” value (H295R cells) lay in the range of 2.5 to 10 nM. The IC50 under setting [2] stood at 9.4 ± 0.3 nM.

Broadly, the IC50 is the midpoint of a concentration-inhibition curve.
